A short description of experiment [1]: Plasma lipid change experiment in mice. Conditions: 14 days, C57BL/6J mice (n=6), blood 6 h after last dose. The format is in vivo, C57BL/6J mouse.
Another experiment relates to CYP7A. Description: CYP7A assay in liver of orally dosed mice. The format is in vivo, C57BL/6J mouse. To be noted: C57BL/6J mice (n=6), single oral administration, liver taken after 8 h; dose not given.
Another experiment concerns the target T1, LXRα (pGAL-hLXRα-LBD) (Homo sapiens, UniProt Q13133).
T1 construct: 수용체 발현 벡터(pGAL-hLXRα-LBD); expressed in transfected cells; host or cells: HEK293 or NIH3T3 cells
T1 sequence (Q13133 209-447 limits assumed): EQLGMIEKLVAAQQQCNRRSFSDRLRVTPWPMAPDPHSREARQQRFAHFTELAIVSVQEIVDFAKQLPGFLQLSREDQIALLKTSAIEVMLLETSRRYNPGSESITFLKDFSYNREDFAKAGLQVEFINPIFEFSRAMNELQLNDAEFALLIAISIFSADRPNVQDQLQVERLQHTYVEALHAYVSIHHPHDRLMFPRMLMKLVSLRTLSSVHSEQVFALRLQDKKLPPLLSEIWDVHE
The experiment can be described thus: Transient transfection assay (luciferase reporter) in HEK293 / NIH3T3 cells. Conditions: increasing amounts of compound, without RXRα expression plasmid (Fig. 1). The format is cell-based.

The target in experiment [2] is T2, LXRα ligand-binding domain [LXRα 리간드-결합 도메인] (GST-LXRα-LBD) (Homo sapiens, UniProt Q13133).
T2 construct: LXRα 리간드-결합 도메인을 글루타치온 S-트랜스퍼라제(GST)의 C-말단에 융합시키고; made in house; host or cells: E. coli
T2 sequence (Q13133 209-447 limits assumed): T1 sequence (Q13133 209-447 limits assumed)
Description: Fluorescence polarization assay (rhodamine-labelled LXXLL peptide recruitment to GST-LXRα-LBD). The format is biochemical. To be noted: 10 nM rhodamine-labelled peptide, 200 nM GST-LXRα-LBD, overnight (Fig. 2).

In the case of `CC(C)c1cc(/C=C(\C#N)S(=O)(=O)c2ccccc2)cn1-c1ccccc1C(F)(F)F` [#189, (E)-2-페닐설포닐-3-[1-(2-트리플루오로메틸페닐)-5-이소프로필피롤-3-일]아크릴로니트릴], the entries for the “increase in plasma HDL cholesterol” value in experiment [1] (30 mg/kg oral) and in experiment [1] (100 mg/kg oral) were 18% and 41%, respectively. In the experiment on CYP7A, the “increase in CYP7A activity in liver” value is listed as 91%.
As for `COC(=O)c1cccc(S(=O)(=O)/C(C#N)=C/c2cc(C(C)C)n(-c3ccccc3C(F)(F)F)c2C)c1` [#182, (E)-2-(3-메톡시카보닐페닐)설포닐-3-[1-(2-트리플루오로메틸페닐)-2-메틸-5-이소프로필피롤-3-일]아크릴로니트릴], on LXRα (pGAL-hLXRα-LBD), the “luciferase activity (LXRα-mediated transcription)” value is “용량 의존적으로 루시퍼라제 활성이 증가하였다”.
Same read-out and setting: then `Cc1c(/C=C(\C#N)S(=O)(=O)c2ccccc2)cc(C(C)C)n1-c1ccccc1C(F)(F)F` [#44, (E)-2-페닐설포닐-3-[1-(2-트리플루오로메틸페닐)-2-메틸-5-이소프로필피롤-3-일]아크릴로니트릴], with “용량 의존적으로 루시퍼라제 활성이 증가하였다”.
Consider `O=S(=O)(c1ccccc1)N(CC(F)(F)F)c1ccc(C(O)(C(F)(F)F)C(F)(F)F)cc1` [T0901317, reference compound], for which the “fluorescence polarization activity (coactivator peptide recruitment)” value in experiment [2] was “가장 높은 활성을 나타내었고”. Besides, at LXRα (pGAL-hLXRα-LBD), the “luciferase activity (LXRα-mediated transcription)” value is reported as “용량 의존적으로 루시퍼라제 활성이 증가하였다”.
For `CC(C)CC[C@@H](O)[C@@H](C)[C@H]1CC[C@H]2[C@@H]3CC=C4C[C@@H](O)CC[C@]4(C)[C@H]3CC[C@]12C` [22(R)-하이드록시콜레스테롤, reference compound], in that order: “형광의 증가를 나타내었다” and “용량 의존적으로 루시퍼라제 활성이 증가하였다”.

(Values after patent KR20050073110A, “간 x 수용체의 항진제” (주식회사 엘지생명과학, priority 2004, dated 2005).)
